± gives the standard deviation of the averaged measurements.
Key:
ETOPOSIDE = compound: COc1cc([C@@H]2c3cc4c(cc3[C@@H](O[C@@H]3O[C@@H]5CO[C@@H](C)O[C@H]5[C@H](O)[C@H]3O)[C@H]3COC(=O)[C@H]23)OCO4)cc(OC)c1O [ETOPOSIDE]; test: surviving fraction relative to DMSO-only wells; higher = less growth inhibition; details: exposure time: 5 days
Method in brief: (§1)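 Luminescence normalised to the median of DMSO-only wells defines surviving fraction, with viability read by CellTiter-Glo. Signal was recorded after 10 minutes at room temperature, once log-phase tumour cell lines seeded at 250–500 cells per well in 384-well plates had spent 24 hours settling and then five days under continuous exposure to inhibitors at 0.5, 1, 5, 10, 50, 100, 500 and 1000 nM.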

SUNITINIB = compound: CCN(CC)CCNC(=O)c1c(C)[nH]c(/C=C2\C(=O)Nc3ccc(F)cc32)c1C [SUNITINIB]; test: as above; details: exposure time: 5 days
Method in brief: as §1

Row | Test System | surviving fraction (ETOPOSIDE; 0.5 nM) | surviving fraction (ETOPOSIDE; 1 nM) | surviving fraction (ETOPOSIDE; 5 nM) | surviving fraction (ETOPOSIDE; 10 nM) | surviving fraction (ETOPOSIDE; 50 nM) | surviving fraction (ETOPOSIDE; 100 nM) | surviving fraction (ETOPOSIDE; 500 nM) | surviving fraction (ETOPOSIDE; 1000 nM) | surviving fraction (SUNITINIB; 0.5 nM) | surviving fraction (SUNITINIB; 10 nM) | surviving fraction (SUNITINIB; 50 nM) | surviving fraction (SUNITINIB; 500 nM) | surviving fraction (SUNITINIB; 1000 nM) | surviving fraction (SUNITINIB; 100 nM) | surviving fraction (SUNITINIB; 1 nM) | surviving fraction (SUNITINIB; 5 nM)
1 | MDAMB453 BREAST | 1.07 ± 0.098 | 1.13 ± 0.14 | 1.13 ± 0.057 | 1.13 ± 0.07 | 1.16 ± 0.046 | 1.15 ± 0.076 | 1.14 ± 0.12 | 0.984 ± 0.078 | 0.982 ± 0.0066 | 1.03 ± 0.026 | 1.022 ± 0.005 | 0.986 ± 0.059 | 0.724 ± 0.047 | – | – | –
2 | MDAMB468 BREAST | 1.1 ± 0.11 | 1.06 ± 0.013 | 1.14 ± 0.065 | 1.13 ± 0.038 | 1.15 ± 0.12 | 1.25 ± 0.089 | 1.09 ± 0.072 | 0.937 ± 0.19 | 0.8 ± 0.046 | 0.927 ± 0.072 | 1.1 ± 0.091 | – | – | 1.04 ± 0.084 | – | –
3 | MFM223 BREAST | 1.1 ± 0.056 | 1.19 ± 0.14 | 1.17 ± 0.12 | 1.07 ± 0.038 | 1.12 ± 0.035 | 1.06 ± 0.035 | 0.721 ± 0.032 | 0.729 ± 0.052 | 0.75 ± 0.033 | 0.707 ± 0.041 | 1.01 ± 0.11 | 0.398 ± 0.013 | 0.247 ± 0.015 | 0.832 ± 0.058 | 0.758 ± 0.032 | 0.7412 ± 0.002
4 | MG63 BONE | 1.01 ± 0.033 | 0.998 ± 0.038 | 1.05 ± 0.059 | 1.06 ± 0.036 | 1.06 ± 0.052 | 1.05 ± 0.066 | 0.778 ± 0.043 | 0.265 ± 0.016 | 0.872 ± 0.02 | – | 0.877 ± 0.028 | 0.721 ± 0.025 | 0.637 ± 0.014 | 0.854 ± 0.016 | 0.865 ± 0.034 | 0.876 ± 0.015
5 | MHM BONE | 0.994 ± 0.022 | 0.999 ± 0.011 | 1.01 ± 0.021 | 1.001 ± 0.007 | 1.02 ± 0.016 | 1.02 ± 0.045 | 0.894 ± 0.018 | 0.784 ± 0.024 | 0.956 ± 0.038 | – | – | 0.881 ± 0.021 | 0.774 ± 0.021 | – | 0.962 ± 0.021 | 0.9887 ± 0.0061
6 | NCIH441 LUNG | 1.03 ± 0.15 | 1.05 ± 0.037 | 1 ± 0.04 | 0.974 ± 0.011 | 1.01 ± 0.053 | 0.829 ± 0.05 | 0.565 ± 0.035 | 0.524 ± 0.016 | 0.963 ± 0.039 | 0.952 ± 0.029 | 1.02 ± 0.043 | – | 0.764 ± 0.079 | 0.977 ± 0.079 | – | –
7 | NOS1 BONE | 1.11 ± 0.12 | 1.01 ± 0.099 | 1.33 ± 0.24 | 1.19 ± 0.12 | 0.977 ± 0.08 | 0.91 ± 0.24 | 0.601 ± 0.075 | 0.623 ± 0.074 | 0.762 ± 0.05 | 0.645 ± 0.039 | 0.561 ± 0.029 | 0.167 ± 0.012 | 0.113 ± 0.03 | 0.391 ± 0.027 | – | –
8 | NY BONE | 1.01 ± 0.033 | 1.01 ± 0.035 | 1.07 ± 0.032 | 1.09 ± 0.066 | 1.07 ± 0.05 | 1.06 ± 0.03 | 0.797 ± 0.033 | 0.592 ± 0.021 | 0.904 ± 0.016 | 0.918 ± 0.04 | 0.937 ± 0.01 | 0.696 ± 0.023 | 0.481 ± 0.036 | 0.929 ± 0.019 | 0.855 ± 0.023 | –
9 | OS25HAL BONE | 1 ± 0.018 | 0.996 ± 0.018 | 1.01 ± 0.015 | 1.01 ± 0.0071 | 1.07 ± 0.041 | 1.04 ± 0.019 | 0.497 ± 0.022 | 0.231 ± 0.024 | 0.886 ± 0.014 | 0.871 ± 0.053 | 0.926 ± 0.038 | 0.767 ± 0.07 | 0.431 ± 0.04 | 0.925 ± 0.02 | – | –
10 | OSHN BONE | 1.05 ± 0.025 | 1.05 ± 0.042 | 1.06 ± 0.046 | 1.06 ± 0.041 | 1.07 ± 0.042 | 1.07 ± 0.048 | 0.452 ± 0.042 | 0.174 ± 0.0076 | 0.9083 ± 0.0045 | 0.8813 ± 0.0055 | – | 0.86 ± 0.019 | 0.42 ± 0.026 | 0.962 ± 0.017 | 0.906 ± 0.0096 | –
11 | PCI30 HEADNECK | 0.943 ± 0.1 | 1.03 ± 0.025 | 1.02 ± 0.09 | 1 ± 0.041 | 1.07 ± 0.05 | 1.01 ± 0.053 | 0.579 ± 0.063 | 0.424 ± 0.031 | 0.949 ± 0.075 | 1.13 ± 0.05 | 1.38 ± 0.064 | 1.2 ± 0.033 | 1.03 ± 0.052 | 1.45 ± 0.19 | 0.936 ± 0.033 | –
12 | RDES SOFT TISSUE | 1.08 ± 0.022 | 1.16 ± 0.21 | 1.1 ± 0.11 | 1.11 ± 0.071 | 0.854 ± 0.21 | 1.15 ± 0.3 | 0.232 ± 0.03 | 0.0647 ± 0.0021 | 0.851 ± 0.24 | 0.794 ± 0.12 | – | 1.17 ± 0.17 | 0.567 ± 0.099 | 1.08 ± 0.19 | 0.741 ± 0.2 | 0.794 ± 0.11
13 | S68 BREAST | 0.939 ± 0.27 | 1.1 ± 0.18 | 1.01 ± 0.072 | 1.44 ± 0.12 | 1.07 ± 0.22 | 0.776 ± 0.095 | 0.369 ± 0.016 | 0.297 ± 0.024 | 0.716 ± 0.13 | 0.74 ± 0.18 | 1.07 ± 0.098 | 0.709 ± 0.065 | 0.488 ± 0.1 | 0.98 ± 0.13 | 0.674 ± 0.15 | –
14 | SAOS2 BONE | 1.03 ± 0.027 | 1.06 ± 0.028 | 1.17 ± 0.02 | 1.16 ± 0.049 | 1.13 ± 0.035 | 1.147 ± 0.011 | 0.783 ± 0.04 | 0.439 ± 0.022 | 0.792 ± 0.052 | 0.692 ± 0.073 | 0.985 ± 0.064 | 0.301 ± 0.046 | 0.154 ± 0.0052 | 0.863 ± 0.093 | 0.691 ± 0.088 | –
15 | SCC36 HEADNECK | 1.13 ± 0.12 | 1.05 ± 0.18 | 1.1 ± 0.12 | 1.08 ± 0.1 | 1.02 ± 0.052 | 1.15 ± 0.086 | 0.668 ± 0.035 | 0.512 ± 0.0061 | 0.754 ± 0.059 | 0.714 ± 0.078 | – | 0.441 ± 0.047 | 0.222 ± 0.021 | 0.872 ± 0.074 | 0.783 ± 0.11 | 0.8 ± 0.02
16 | SCC47 HEADNECK | 1.04 ± 0.11 | 1.05 ± 0.039 | 1.02 ± 0.025 | 1.08 ± 0.079 | 1.11 ± 0.071 | 1.06 ± 0.084 | 0.799 ± 0.07 | 0.575 ± 0.027 | 0.886 ± 0.019 | – | 1.02 ± 0.016 | 0.726 ± 0.022 | 0.502 ± 0.041 | – | 0.9 ± 0.059 | –
17 | SCC90 HEADNECK | 1.02 ± 0.099 | 1.11 ± 0.12 | 1.18 ± 0.092 | 1.2 ± 0.2 | 1.22 ± 0.15 | 1.13 ± 0.13 | 0.999 ± 0.18 | 0.878 ± 0.21 | – | 0.887 ± 0.064 | – | 0.819 ± 0.06 | 0.522 ± 0.052 | 1.25 ± 0.17 | 0.814 ± 0.086 | –
18 | SG27 HEADNECK | 1.12 ± 0.081 | 1.05 ± 0.11 | 0.975 ± 0.12 | 1.05 ± 0.14 | 1.08 ± 0.15 | 1.04 ± 0.037 | 1.09 ± 0.14 | 0.985 ± 0.14 | – | 0.744 ± 0.046 | 1.22 ± 0.077 | 1.72 ± 0.17 | 0.81 ± 0.064 | 1.25 ± 0.12 | 0.949 ± 0.026 | 0.922 ± 0.072
19 | SG28 HEADNECK | 1.18 ± 0.046 | 1.19 ± 0.063 | 1.13 ± 0.075 | 1.15 ± 0.044 | 1.07 ± 0.2 | 1.09 ± 0.093 | 1.05 ± 0.029 | 0.969 ± 0.11 | 0.913 ± 0.11 | 0.313 ± 0.042 | 0.893 ± 0.14 | 0.4727 ± 0.0046 | 0.124 ± 0.017 | 0.725 ± 0.044 | 0.789 ± 0.051 | 0.807 ± 0.086

Reference: the supplement of paper PMC6045584
